Test results: US10774092B2 (SALK INSTITUTE FOR BIOLOGICAL STUDIES, priority 2014, dated 2020)

Target: ULK1
Assay: ULK1 inhibition assay (Table 1)
Type: biochemical
Conditions: * = tested as a mixture of regioisomers

| SMILES | IC50 [µM] |
| --- | --- |
| CN(c1ccccc1)c1nc(Nc2ccc3c(c2)CCC(=O)N3)ncc1C(F)(F)F [Example 184a, 6-((4-(methyl(phenyl)amino)-5-(trifluoromethyl)pyrimidin-2-yl)amino)-3,4-dihydroquinolin-2(1H)-one] | 0.2 to 2 |
| O=c1[nH]c2ccc(Nc3nccc(NC4CC4)n3)cc2[nH]1 [Example 232, 5-((4-(cyclopropylamino)pyrimidin-2-yl)amino)-1,3-dihydro-2H-benzo[d]imidazol-2-one] | > 2 |
| COc1cc(Nc2ncc(Br)c(Oc3ccccc3N)n2)cc(OC)c1OC [Example 254b, 4-(2-aminophenoxy)-5-bromo-N-(3,4,5-trimethoxyphenyl)pyrimidin-2-amine] | < 0.2 |
| CC(CCl)Nc1nc(Nc2ccc3c(c2)CCC(=O)N3)ncc1C(F)(F)F (centres unmarked) [Example 183c, 6-((4-((1-chloropropan-2-yl)amino)-5-(trifluoromethyl)pyrimidin-2-yl)amino)-3,4-dihydroquinolin-2(1H)-one] | > 2 |
| COc1cc(Nc2ncc(Br)c(Oc3ccccc3C(=O)N3CCCC3)n2)cc(OC)c1OC [Example 277, (2-((5-bromo-2-((3,4,5-trimethoxyphenyl)amino)pyrimidin-4-yl)oxy)phenyl)(pyrrolidin-1-yl)methanone] | < 0.2 |
| O=C1NC(=O)c2cc(Nc3ncc(C(F)(F)F)c(NC4CC4)n3)ccc21 [Example 314, 5-((4-(cyclopropylamino)-5-(trifluoromethyl)pyrimidin-2-yl)amino)isoindoline-1,3-dione] | < 0.2 |
| CN(c1ccccc1)c1ncc(C(F)(F)F)c(Nc2ccc3c(c2)CCC(=O)N3)n1 [Example 184b, 6-((2-(methyl(phenyl)amino)-5-(trifluoromethyl)pyrimidin-4-yl)amino)-3,4-dihydroquinolin-2(1H)-one] | < 0.2 |
| O=C1CCc2cc(Nc3nc(Oc4ccccc4)ncc3C(F)(F)F)ccc2N1 [Example 300b, 6-((2-phenoxy-5-(trifluoromethyl)pyrimidin-4-yl)amino)-3,4-dihydroquinolin-2(1H)-one] | > 2 |
| O=C1CCc2cc(Nc3ncc(C(F)(F)F)c(NC4CN(c5nc(Nc6ccc7c(c6)CCC(=O)N7)ncc5C(F)(F)F)C4)n3)ccc2N1 [Example 198b, 6-((4-(3-((2-((2-oxo-1,2,3,4-tetrahydroquinolin-6-yl)amino)-5-(trifluoromethyl)pyrimidin-4-yl)amino)azetidin-1-yl)-5-(trifluoromethyl)pyrimidin-2-yl)amino)-3,4-dihydroquinolin-2(1H)-one] | > 2 |
| c1cc(NC2CC2)nc(Nc2cnc3[nH]ccc3c2)n1 [Example 204, N4-cyclopropyl-N2-(1H-pyrrolo[2,3-b]pyridin-5-yl)pyrimidine-2,4-diamine] | > 2 |
| FC(F)(F)c1cnc(Nc2cccc3ncccc23)nc1NC1CC1 [Example 278, N4-cyclopropyl-N2-(quinolin-5-yl)-5-(trifluoromethyl) pyrimidine-2,4-diamine] | > 2 |
| O=C1CCc2cc(Nc3ncc(C(F)(F)F)c(OCCNCCO)n3)ccc2N1 [Example 212b, 6-((4-(2-((2-hydroxyethyl)amino)ethoxy)-5-(trifluoromethyl)pyrimidin-2-yl)amino)-3,4-dihydroquinolin-2(1H)-one] | 0.2 to 2 |
| O=C1CCc2cc(Nc3ncc(C(F)(F)F)c(Oc4ccccc4)n3)ccc2N1 [Example 300a, 6-((4-phenoxy-5-(trifluoromethyl)pyrimidin-2-yl)amino)-3,4-dihydroquinolin-2(1H)-one] | > 2 |
| CNC(=O)c1c(O)cccc1Oc1nc(Nc2cc(OC)c(OC)c(OC)c2)ncc1Br [Example 257, 2-((5-bromo-2-((3,4,5-trimethoxyphenyl)amino)pyrimidin-4-yl)oxy)-6-hydroxy-N-methylbenzamide] | < 0.2 |
| COc1cc(Nc2ncc(Br)c(Oc3ccccc3-c3nc(C)co3)n2)cc(OC)c1OC [Example 290, 5-bromo-4-(2-(4-methyloxazol-2-yl)phenoxy)-N-(3,4,5-trimethoxyphenyl)pyrimidin-2-amine] | > 2 |
| OC1Nc2ccc(Nc3ncc(C(F)(F)F)c(NC4CC4)n3)cc2O1 (centres unmarked) [Example 208b, 6-((4-(cyclopropylamino)-5-(trifluoromethyl)pyrimidin-2-yl)amino)-2,3-dihydrobenzo[d]oxazol-2-ol] | < 0.2 |
| COc1cc(Nc2ncc(Br)c(Nc3ccccc3)n2)cc(OC)c1OC [Example 293, 5-bromo-N4-phenyl-N2-(3,4,5-trimethoxyphenyl)pyrimidine-2,4-diamine] | < 0.2 |
| O=C1CCc2cc(Nc3ncc(C(F)(F)F)c(O)n3)ccc2N1 [Example 231b, 6-((4-hydroxy-5-(trifluoromethyl)pyrimidin-2-yl)amino)-3,4-dihydroquinolin-2(1H)-one] | > 2 |
| CC(Cl)CNc1nc(Nc2ccc3c(c2)CCC(=O)N3)ncc1C(F)(F)F (centres unmarked) [Example 183b, 6-((4-((2-chloropropyl)amino)-5-(trifluoromethyl)pyrimidin-2-yl)amino)-3,4-dihydroquinolin-2(1H)-one] | < 0.2 |
| O=C1CCc2cc(Nc3ncc(C(F)(F)F)c(NC4CNC4)n3)ccc2N1 [Example 198a, 6-((4-(azetidin-3-ylamino)-5-(trifluoromethyl)pyrimidin-2-yl)amino)-3,4-dihydroquinolin-2(1H)-one] | 0.2 to 2 |
| FC(F)(F)c1cnc(Nc2ccc(Nc3ncc(C(F)(F)F)c(NC4CC4)n3)cc2)nc1NC1CC1 [Example 304b, N2,N2′-(1,4-phenylene)bis(N4-cyclopropyl-5-(trifluoromethyl)pyrimidine-2,4-diamine)] | > 2 |
| N=c1ccon1-c1ncc(C(F)(F)F)c(NC2CC2)n1 [Example 214b, N-cyclopropyl-2-(3-iminoisoxazol-2(3H)-yl)-5-(trifluoromethyl)pyrimidin-4-amine] | > 2 |
| O=C1CCc2cc(Nc3nc(NC4CC4)c4ccccc4n3)ccc2N1 [Example 263, 6-((4-(cyclopropylamino)quinazolin-2-yl)amino)-3,4-dihydroquinolin-2(1H)-one] | > 2 |
| COc1cc(Nc2ncc(Br)c(Oc3ccccc3NC(C)=O)n2)cc(OC)c1OC [Example 254a, N-(2-((5-bromo-2-((3,4,5-trimethoxyphenyl)amino)pyrimidin-4-yl)oxy)phenyl)acetamide] | < 0.2 |
| CNC(=O)c1cccc(OC)c1Oc1nc(Nc2cc(OC)c(OC)c(OC)c2)ncc1Br [Example 252, 2-((5-bromo-2-((3,4,5-trimethoxyphenyl)amino)pyrimidin-4-yl)oxy)-3-methoxy-N-methylbenzamide] | < 0.2 |
| N#Cc1cnc(NC2CC2)nc1Nc1ccc2c(c1)CCC(=O)N2 [Example 287] | > 2 |
| FC(F)(F)c1cnc(Nc2cncnc2)nc1NC1CC1 [Example 203, N4-cyclopropyl-N2-(pyrimidin-5-yl)-5-(trifluoromethyl) pyrimidine-2,4-diamine] | < 0.2 |
| COc1cc(Nc2ncc(Br)c(Nc3ccccc3O)n2)cc(OC)c1OC [Example 317, 2-((5-bromo-2-((3,4,5-trimethoxyphenyl)amino)pyrimidin-4-yl)amino)phenol] | < 0.2 |
| COc1cc(Nc2ncc(Cl)c(N(C)C(=O)c3ccccc3O)n2)cc(OC)c1OC [Example 234b, N-(5-chloro-2-((3,4,5-trimethoxyphenyl)amino)pyrimidin-4-yl)-2-hydroxy-N-methylbenzamide] | 0.2 to 2 |
